In US12590094B2, “Compounds for the treatment of neurodegenerative and metabolic disorders” (UNIVERSITY OF FLORIDA RESEARCH FOUNDATION, INCORPORATED, priority 2019, dated 2026):
“And” between values parts separate entries of the source, which are not always exact repeats. Identical values can stand only once. “Also recorded” adds a separate entry of the source. Like-named read-outs stand apart in the source and are kept apart here.

Legend:
[1] = test system: PK1 neuroblastoma cells treated with TPrP; assay: cells; assay type: cell-based; conditions: for EC50: Neuroblastoma cell
[2] = test system: PK1 neuroblastoma cells treated with TPrP; assay: cells; assay type: cell-based; conditions: Neuroblastoma cell
[3] = test system: Murine stem-cell derived neurons; assay: Cellular PD/synucleinopathy model, PFFs-seeded murine neurons, neurite length; assay type: cell-based; conditions: FIG. 14
Method: Murine stem-cell derived neurons (8 days post-differentiation) were seeded with PFFs (A, B: 4 μg/ml; C, D: 3 μg/ml) and treated with the test compounds at the dose indicated, or with the vehicle DMSO, during the last 2 days of differentiation. Control cells were not PFFs-seeded. Cells were photographed by phase contrast microscopy. Neurite length was quantified using the NeuronJ plugin of ImageJ (NIH), statistical analysis was done in pairs by comparing compound-treated cells with the DMSO control (student's t-test, Prism8). Mean values and SEMs of 4 fields per each condition are shown. Each field contained approximately 50 to 100 neurons. Images shown correspond to a representative area of one field. ****P<0.0001; ***P<0.001; **P<0.01; *P<0.05; ns=not significant.

Cells exposed to TPrP [4] = assay: cells; conditions: read-out: Viability EC50
[5] = in vivo; cited from earlier work
[6] = test system: Primary mouse cortical neurons; assay type: cell-based
Cells exposed to TPrP [7] = conditions: for EC50: read-out: Viability EC50
[8] = test system: PK1 cells treated with TPrP; assay type: cell-based
NAMPT = biological target: T1, NAMPT (Homo sapiens, UniProt P43490); assay: Colorimetric NAMPT activity assay (Abcam, ab221819); assay type: biochemical; conditions: tested at 5 μM or 20 μM
T1 construct: purchased Abcam ab221819
Method: Compounds were tested in a colorimetric NAMPT activity assay (Abcam, ab221819). Each data point represents a duplicate sample. […] Compounds were tested at 5 μM (A) or 20 μM (B).

VEGFR-1 [9] = biological target: T2, VEGFR-1 (Homo sapiens, UniProt P17948); conditions: subtype not given; cited from earlier work
VEGFR-1 [10] = biological target: T2, VEGFR-1; assay: VEGFR inhibition of vatalanib analogs; assay type: biochemical; conditions: relative to vatalanib
PARP-1 = PARP-1 (Homo sapiens, UniProt P09874); assay: PARP1 chemiluminescent assay kit (BPS Bioscience); assay type: biochemical; conditions: FIG. 15
Method: ABT-888 is a known PARP1 inhibitor serving as pharmacological control for the assay. […] The assay was performed using the BPS Bioscience PARP1 chemiluminescent assay kit according to the manufacturer's instructions.

[11] = test system: Human stem cell-derived neurons; assay: Cellular PD model, α-synuclein PFFs-seeded human neurons; assay type: cell-based; conditions: 2 μM, PFFs 50 μg/ml, 17 days
Method: Human stem cell-derived neurons (30 days post-differentiation) were seeded with 50 μg/ml preformed α-synuclein fibrils (PFFs), treated with DMCM-10049 at 2 μM or vehicle, and fixed 17 days later for analysis. Control cells were not PFFs-seeded. A: Dendritic spines were labeled with the marker F-actin using Phalloidin-iFluor 488 (Abcam). B: pα-syn* (red, antibody GTX50222, GeneTex)+DAPI (blue) staining. Quantification was done using ImageJ (NIH), statistical analysis with one way ANOVA (Prism7). Mean values and SDs of 8 images (A) or 6 images (B) per each condition are shown. ****P<0.0001; ***P<0.001; ns=non significant.

GABAA R subtypes = conditions: relative to DMCM; cited from earlier work
[12] = test system: PK1 cells exposed to TPrP; assay type: cell-based
[13] = read-out: EC50 (TPrP toxicity rescue / neuroprotection)

Chain of PARP-1 (P09874 whole entry): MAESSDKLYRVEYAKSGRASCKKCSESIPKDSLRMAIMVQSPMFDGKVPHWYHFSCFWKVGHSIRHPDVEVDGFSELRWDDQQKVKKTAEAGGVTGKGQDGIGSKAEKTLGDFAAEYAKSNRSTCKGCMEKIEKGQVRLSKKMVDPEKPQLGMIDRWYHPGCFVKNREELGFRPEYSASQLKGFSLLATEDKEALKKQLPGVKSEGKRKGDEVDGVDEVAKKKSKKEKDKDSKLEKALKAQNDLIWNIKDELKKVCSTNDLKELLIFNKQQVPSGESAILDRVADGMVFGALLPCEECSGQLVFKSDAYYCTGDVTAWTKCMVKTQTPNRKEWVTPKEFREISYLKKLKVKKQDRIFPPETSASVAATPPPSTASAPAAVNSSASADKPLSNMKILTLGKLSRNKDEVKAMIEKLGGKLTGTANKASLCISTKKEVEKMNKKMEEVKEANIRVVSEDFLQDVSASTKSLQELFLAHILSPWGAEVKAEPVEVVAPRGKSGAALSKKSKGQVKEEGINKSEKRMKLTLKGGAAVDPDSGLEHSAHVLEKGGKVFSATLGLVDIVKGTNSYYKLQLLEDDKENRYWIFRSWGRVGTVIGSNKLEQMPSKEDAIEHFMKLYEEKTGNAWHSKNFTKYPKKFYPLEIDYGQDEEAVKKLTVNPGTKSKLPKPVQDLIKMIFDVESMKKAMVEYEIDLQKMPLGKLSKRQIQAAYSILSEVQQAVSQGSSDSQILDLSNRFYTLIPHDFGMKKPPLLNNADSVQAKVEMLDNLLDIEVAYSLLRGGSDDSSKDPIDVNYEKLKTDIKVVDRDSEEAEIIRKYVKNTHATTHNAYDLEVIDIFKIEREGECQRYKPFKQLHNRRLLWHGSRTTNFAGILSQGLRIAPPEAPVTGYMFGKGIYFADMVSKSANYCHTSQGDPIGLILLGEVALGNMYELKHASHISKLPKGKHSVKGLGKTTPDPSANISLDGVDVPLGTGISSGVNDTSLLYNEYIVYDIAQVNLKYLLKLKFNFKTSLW
T1 sequence (P43490 whole entry): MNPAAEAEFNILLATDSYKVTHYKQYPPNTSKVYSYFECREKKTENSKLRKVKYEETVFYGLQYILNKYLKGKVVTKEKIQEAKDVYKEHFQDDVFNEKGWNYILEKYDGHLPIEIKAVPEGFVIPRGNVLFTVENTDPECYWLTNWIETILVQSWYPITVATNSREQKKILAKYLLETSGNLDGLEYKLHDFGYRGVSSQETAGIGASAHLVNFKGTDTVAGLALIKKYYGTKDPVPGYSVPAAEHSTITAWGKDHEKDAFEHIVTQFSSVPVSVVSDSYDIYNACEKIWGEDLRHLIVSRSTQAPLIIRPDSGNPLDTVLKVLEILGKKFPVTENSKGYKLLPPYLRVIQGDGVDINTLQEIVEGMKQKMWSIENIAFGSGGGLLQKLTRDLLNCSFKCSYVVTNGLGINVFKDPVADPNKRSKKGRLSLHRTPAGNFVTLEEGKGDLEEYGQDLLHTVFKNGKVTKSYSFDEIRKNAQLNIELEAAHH
T2 sequence (P17948 27-1338, species assumed): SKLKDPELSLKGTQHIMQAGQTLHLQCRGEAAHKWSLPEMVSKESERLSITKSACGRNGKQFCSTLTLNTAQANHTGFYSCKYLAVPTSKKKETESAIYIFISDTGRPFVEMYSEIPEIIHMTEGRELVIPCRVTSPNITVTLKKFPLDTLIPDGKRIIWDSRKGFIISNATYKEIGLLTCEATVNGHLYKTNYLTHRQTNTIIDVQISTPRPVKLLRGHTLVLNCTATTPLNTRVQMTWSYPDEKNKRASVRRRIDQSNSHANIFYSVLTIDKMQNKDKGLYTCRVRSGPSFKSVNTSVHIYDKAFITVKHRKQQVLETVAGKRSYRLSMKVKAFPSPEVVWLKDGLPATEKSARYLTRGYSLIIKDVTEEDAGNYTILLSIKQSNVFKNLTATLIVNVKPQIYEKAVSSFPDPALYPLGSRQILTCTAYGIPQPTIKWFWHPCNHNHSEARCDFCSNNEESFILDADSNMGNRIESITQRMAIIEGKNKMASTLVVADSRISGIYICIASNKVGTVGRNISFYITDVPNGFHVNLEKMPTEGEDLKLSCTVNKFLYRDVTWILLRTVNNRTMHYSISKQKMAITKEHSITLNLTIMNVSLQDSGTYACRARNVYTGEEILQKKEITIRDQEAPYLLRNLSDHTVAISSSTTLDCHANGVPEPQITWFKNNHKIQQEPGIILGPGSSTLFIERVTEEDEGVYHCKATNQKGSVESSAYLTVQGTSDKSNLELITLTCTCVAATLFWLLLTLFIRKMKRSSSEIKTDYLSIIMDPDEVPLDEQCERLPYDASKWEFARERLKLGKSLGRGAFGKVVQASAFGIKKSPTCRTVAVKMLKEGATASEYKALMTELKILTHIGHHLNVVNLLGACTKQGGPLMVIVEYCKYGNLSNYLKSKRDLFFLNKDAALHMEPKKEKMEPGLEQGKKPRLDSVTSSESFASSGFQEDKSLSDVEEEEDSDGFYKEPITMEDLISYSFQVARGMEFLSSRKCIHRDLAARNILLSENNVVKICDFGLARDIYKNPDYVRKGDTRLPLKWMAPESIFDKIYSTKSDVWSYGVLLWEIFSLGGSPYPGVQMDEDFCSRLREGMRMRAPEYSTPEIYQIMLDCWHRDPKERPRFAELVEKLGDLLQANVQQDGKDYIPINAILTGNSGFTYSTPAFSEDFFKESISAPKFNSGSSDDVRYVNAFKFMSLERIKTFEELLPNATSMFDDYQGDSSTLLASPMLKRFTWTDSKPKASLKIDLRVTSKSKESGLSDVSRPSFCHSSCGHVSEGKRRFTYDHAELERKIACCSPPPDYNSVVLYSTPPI

Row | Compound | EC50 ([1]; read-out: Viability EC50) | EC50 ([2]; read-out: NAD EC50) | loss of neurites induced by PFFs exposure [3] | Activation of NAMPT (NAMPT) | further results
1 | Clc1ccc(Nc2nnc(Cc3ccncc3)c3ccccc23)cc1 [Vatalanib, reference compound] | 40 nM | 195 nM | prevent loss of neurites | – | EC50 [1, 13]: 39.9 nM; EC50 ([2]; read-out: EC50 (NAD assay)): 195 nM; EC50 (Cells exposed to TPrP [4]): 45 nM; oral bioavailability [5]: high
2 | NAD | – | – | – | – | neuritic breakdown and neuronal vacuolation induced by TPrP [6]: suppressed
3 | CCc1c(C(=O)N[C@H]2CC[C@@H](N)CC2)ncc2[nH]c3cc(OC)c(OC)cc3c12 [DMCM-8137] | – | – | – | – | neuroprotection in the TPrP neuroprotection assay (Cells exposed to TPrP [7]): neuroprotective; EC50 (Cells exposed to TPrP [4]): ~500 nM
4 | CCc1c(C(=O)OC)ncc2[nH]c3cc(OC)c(OC)cc3c12 [SR1-75869, DMCM, reference compound] | 120 nM | 749 nM | – | not | neuritic breakdown and neuronal vacuolation induced by TPrP [6]: suppressed; rescue of TPrP-induced toxicity (cell viability) [6]: rescues TPrP-induced toxicity; excessive protein ADP ribosylation induced by TPrP [8]: mitigates excessive protein ADP ribosylation
5 | COc1cc(Nc2nnc(Cc3ccncc3)c3ccccc23)cc(OC)c1 [SR1-151915] | 71.4 nM | 280 nM | – | – | EC50 [1, 13]: 71.4 nM; IC50 (VEGFR-1 [9]): > 1000 nM
6 | CC(=O)c1cccc(Nc2nnc(Cc3ccncc3)c3ccccc23)c1 [SR1-134005] | 6.3 nM | 105 nM | – | Activation of NAMPT | fold more potent than vatalanib as a neuroprotective agent [1]: more than 6 fold; EC50 [1, 13]: 6.3 nM; fold less potent than vatalanib at VEGFR-1 (VEGFR-1 [10]): 13 fold; PARP-1 inhibition (PARP-1): absence of PARP-1 inhibition; EC50 (Cells exposed to TPrP [4]): 20 nM
7 | NS(=O)(=O)c1ccc(Nc2nc(-c3ccncc3)cs2)cc1 [SR1-477186] | 26 nM | 365 nM | prevent loss of neurites | not | –
8 | COc1ccc(-c2cc(=O)c3c(OC)c(OC)c(OC)c(OC)c3o2)cc1OC [SR-01000712262, 2-(3,4-dimethoxyphenyl)-5,6,7,8-tetramethoxy-4H-chromen-4-one] | 580 nM | 664 nM | prevent loss of neurites | not | PARP-1 inhibition (PARP-1): absence of PARP-1 inhibition
9 | O=c1cc(-c2ccc(O)cc2)oc2cc(O)cc(O)c12 [SR1-75663, 5,7-dihydroxy-2-(4-hydroxyphenyl)-4H-chromen-4-one] | 1700 nM | > 10000 nM | prevent loss of neurites | – | –
10 | Cc1nc(C)c(-c2csc(Nc3ccc(S(N)(=O)=O)cc3)n2)s1 [SR1-477302] | 14 nM | 103 nM | – | – | EC50 (Cells exposed to TPrP [7]): 18 nM and 30 nM
11 | Cc1ccc(-c2nnc3c4ccccc4c(C)nn23)cc1S(=O)(=O)NC(C)(C)CO [SR1-115259] | 5.1 nM | 167 nM | prevent loss of neurites | not | –
12 | O=C(NCCCn1ccnc1)c1cnn2c(C(F)(F)F)cc(-c3ccccc3)nc12 [SR1-293229] | 1.9 nM | 6.8 nM | prevent loss of neurites | not | PARP-1 inhibition (PARP-1): absence of PARP-1 inhibition; EC50 (Cells exposed to TPrP [7]): 2 nM; EC50 (Cells exposed to TPrP [4]): 1.5 nM
13 | CCc1c(C(=O)NN)ncc2[nH]c3cc(OC)c(OC)cc3c12 [DMCM-10049] | – | – | – | – | dendritic spines (F-actin) [11]: preserves dendritic spines; pα-syn* levels [11]: reduces pα-syn* levels; PARP-1 inhibition (PARP-1): absence of PARP-1 inhibition; EC50 (Cells exposed to TPrP [4]): ~500 nM; reduced potency for most GABAA R subtypes (GABAA R subtypes): over 100 ×
14 | CCOC(=O)c1ncn2c1CN(C)C(=O)c1cc(F)ccc1-2 [flumazenil] | – | – | – | – | protection against TPrP toxicity [12]: neither rescued TPrP-induced toxicity; also recorded: absence of protection
15 | Cc1ccc(-c2nnc3c4ccccc4c(C)nn23)cc1S(=O)(=O)N1CCOCC1 [SR5-22843] | 30 nM | 219 nM | – | – | PARP-1 inhibition (PARP-1): absence of PARP-1 inhibition
16 | CCc1c(C(=O)NCCN)ncc2[nH]c3cc(OC)c(OC)cc3c12 [DMCM-8130] | – | – | – | – | EC50 (Cells exposed to TPrP [7]): ~600 nM
17 | CCc1c(C(=O)NCCN)ncc2[nH]c3cc(OC)c(OC)cc3c12 [DMCM-8124] | – | – | – | – | EC50 (Cells exposed to TPrP [7]): ~1800 nM
18 | COc1ccc(-c2cc(C(F)(F)F)n3ncc(C(=O)NCCCn4ccnc4C)c3n2)cc1 [SR0-31107] | – | – | – | – | EC50 (Cells exposed to TPrP [7]): 2 nM
